# In the supplement of paper PMC10307832:
# Tests used:
# Experiment in all cases: relative viability (nuclei count vs DMSO), 5 days (fraction); higher = more cells survive
# A-427 = system: A-427
# How it was run: (§1)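 Each reported value is a median over duplicate plates. It expresses relative viability: treated-well nuclei count divided by vehicle-well nuclei count. Lung cancer cell lines in 1536-well plates were dosed by pin tool a day after seeding, alone with one drug or with a fixed anchor-drug dose plus five library-drug doses (not always all listed) in √10 steps, and nuclei were counted after 5 days.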
# NCI-H1437 = system: NCI-H1437
# How it was run: as §1
# HOP-62 = system: HOP-62
# How it was run: as §1
# CAL-12T = system: CAL-12T
# How it was run: as §1
# HCC-827 = system: HCC-827
# How it was run: as §1
# NCI-H727 = system: NCI-H727
# How it was run: as §1
# NCI-H522 = system: NCI-H522
# How it was run: as §1
# NCI-H460 = system: NCI-H460
# How it was run: as §1
# EMC-BAC-2 = system: EMC-BAC-2
# How it was run: as §1
# NCI-H1915 = system: NCI-H1915
# How it was run: as §1
# NCI-H1395 = system: NCI-H1395
# How it was run: as §1
# NCI-H1792 = system: NCI-H1792
# How it was run: as §1
# NCI-H23 = system: NCI-H23
# How it was run: as §1
# HCC-366 = system: HCC-366
# How it was run: as §1
# HARA = system: HARA
# How it was run: as §1
# LCLC-103H = system: LCLC-103H
# How it was run: as §1
# NCI-H1755 = system: NCI-H1755
# How it was run: as §1
# NCI-H2009 = system: NCI-H2009
# How it was run: as §1
# SW 1573 = system: SW 1573
# How it was run: as §1
# NCI-H2228 = system: NCI-H2228
# How it was run: as §1
# SK-LU-1 = system: SK-LU-1
# How it was run: as §1
# COR-L 105 = system: COR-L 105
# How it was run: as §1
compound,measurement,setting,value
COc1nc(C)cnc1NS(=O)(=O)c1cccnc1-c1ccc(-c2nnco2)cc1 [Zibotentan] + NC(=O)Nc1cc(-c2cccc(F)c2)sc1C(=O)N[C@H]1CCCNC1 [AZD7762] (partner 0.2 µM),relative viability,A-427; first compound 0.08 µM,0.905
same,relative viability,A-427; first compound 0.253 µM,0.666
same,relative viability,A-427; first compound 0.8 µM,0.655
same,relative viability,A-427; first compound 2.53 µM,0.834
same,relative viability,NCI-H1437; first compound 0.08 µM,1.14
same,relative viability,NCI-H1437; first compound 0.253 µM,0.897
same,relative viability,NCI-H1437; first compound 0.8 µM,1.05
same,relative viability,NCI-H1437; first compound 2.53 µM,1.15
same,relative viability,HOP-62; first compound 0.08 µM,0.593
same,relative viability,HOP-62; first compound 0.253 µM,0.63
same,relative viability,HOP-62; first compound 0.8 µM,0.479
same,relative viability,HOP-62; first compound 2.53 µM,0.615
same,relative viability,CAL-12T; first compound 0.08 µM,0.604
same,relative viability,CAL-12T; first compound 0.253 µM,0.498
same,relative viability,CAL-12T; first compound 0.8 µM,0.526
same,relative viability,CAL-12T; first compound 2.53 µM,0.666
same,relative viability,HCC-827; first compound 0.08 µM,0.215
same,relative viability,HCC-827; first compound 0.253 µM,0.183
same,relative viability,HCC-827; first compound 0.8 µM,0.183
same,relative viability,HCC-827; first compound 2.53 µM,0.223
same,relative viability,NCI-H727; first compound 0.08 µM,0.575
same,relative viability,NCI-H727; first compound 0.253 µM,0.572
same,relative viability,NCI-H727; first compound 0.8 µM,0.497
same,relative viability,NCI-H727; first compound 2.53 µM,0.296
same,relative viability,NCI-H522; first compound 0.08 µM,0.835
same,relative viability,NCI-H522; first compound 0.253 µM,0.862
same,relative viability,NCI-H522; first compound 0.8 µM,0.773
same,relative viability,NCI-H522; first compound 2.53 µM,0.856
same,relative viability,NCI-H460; first compound 0.08 µM,0.784
same,relative viability,NCI-H460; first compound 0.253 µM,0.539
same,relative viability,NCI-H460; first compound 0.8 µM,0.251
same,relative viability,NCI-H460; first compound 2.53 µM,0.749
same,relative viability,EMC-BAC-2; first compound 0.08 µM,1.08
same,relative viability,EMC-BAC-2; first compound 0.8 µM,1.08
same,relative viability,EMC-BAC-2; first compound 2.53 µM,1.16
same,relative viability,NCI-H1915; first compound 0.08 µM,0.836
same,relative viability,NCI-H1915; first compound 0.253 µM,0.649
same,relative viability,NCI-H1915; first compound 0.8 µM,0.597
same,relative viability,NCI-H1915; first compound 2.53 µM,0.683
same,relative viability,NCI-H1395; first compound 0.08 µM,0.417
same,relative viability,NCI-H1395; first compound 0.253 µM,0.349
same,relative viability,NCI-H1395; first compound 0.8 µM,0.401
same,relative viability,NCI-H1395; first compound 2.53 µM,0.441
same,relative viability,NCI-H1792; first compound 0.08 µM,0.899
same,relative viability,NCI-H1792; first compound 0.253 µM,0.604
same,relative viability,NCI-H1792; first compound 0.8 µM,0.373
same,relative viability,NCI-H1792; first compound 2.53 µM,0.822
same,relative viability,NCI-H23; first compound 0.08 µM,0.224
same,relative viability,NCI-H23; first compound 0.253 µM,0.238
same,relative viability,NCI-H23; first compound 0.8 µM,0.196
same,relative viability,NCI-H23; first compound 2.53 µM,0.26
same,relative viability,HCC-366; first compound 0.08 µM,0.28
same,relative viability,HCC-366; first compound 0.253 µM,0.208
same,relative viability,HCC-366; first compound 0.8 µM,0.103
same,relative viability,HCC-366; first compound 2.53 µM,0.343
same,relative viability,HARA; first compound 0.08 µM,0.254
same,relative viability,HARA; first compound 0.8 µM,0.302
same,relative viability,HARA; first compound 2.53 µM,0.416
same,relative viability,LCLC-103H; first compound 0.08 µM,0.77
same,relative viability,LCLC-103H; first compound 0.253 µM,0.786
same,relative viability,LCLC-103H; first compound 0.8 µM,0.778
same,relative viability,LCLC-103H; first compound 2.53 µM,0.752
same,relative viability,NCI-H1755; first compound 0.08 µM,0.452
same,relative viability,NCI-H1755; first compound 0.253 µM,0.464
same,relative viability,NCI-H1755; first compound 0.8 µM,0.387
same,relative viability,NCI-H1755; first compound 2.53 µM,0.471
COc1nc(C)cnc1NS(=O)(=O)c1cccnc1-c1ccc(-c2nnco2)cc1 [Zibotentan] + O=C(CCCCCCC(=O)Nc1ccccc1)NO [Vorinostat] (partner 1 µM),relative viability,NCI-H2009; first compound 0.08 µM,0.705
same,relative viability,NCI-H2009; first compound 0.253 µM,0.705
same,relative viability,NCI-H2009; first compound 0.8 µM,0.72
same,relative viability,NCI-H2009; first compound 2.53 µM,0.893
same,relative viability,A-427; first compound 0.08 µM,0.921
same,relative viability,A-427; first compound 0.253 µM,0.848
same,relative viability,A-427; first compound 0.8 µM,0.905
same,relative viability,A-427; first compound 2.53 µM,0.928
same,relative viability,NCI-H1437; first compound 0.08 µM,1.05
same,relative viability,NCI-H1437; first compound 0.253 µM,0.823
same,relative viability,NCI-H1437; first compound 0.8 µM,0.834
same,relative viability,NCI-H1437; first compound 2.53 µM,0.828
same,relative viability,HOP-62; first compound 0.08 µM,0.676
same,relative viability,HOP-62; first compound 0.253 µM,0.57
same,relative viability,HOP-62; first compound 0.8 µM,0.735
same,relative viability,HOP-62; first compound 2.53 µM,0.623
same,relative viability,CAL-12T; first compound 0.08 µM,0.887
same,relative viability,CAL-12T; first compound 0.253 µM,0.543
same,relative viability,CAL-12T; first compound 0.8 µM,0.742
same,relative viability,CAL-12T; first compound 2.53 µM,0.714
same,relative viability,HCC-827; first compound 0.08 µM,0.958
same,relative viability,HCC-827; first compound 0.253 µM,0.771
same,relative viability,HCC-827; first compound 0.8 µM,0.811
same,relative viability,HCC-827; first compound 2.53 µM,0.785
same,relative viability,NCI-H727; first compound 0.08 µM,1.19
same,relative viability,NCI-H727; first compound 0.253 µM,1.24
same,relative viability,NCI-H727; first compound 0.8 µM,1.07
same,relative viability,NCI-H727; first compound 2.53 µM,1.19
same,relative viability,NCI-H522; first compound 0.08 µM,0.928
same,relative viability,NCI-H522; first compound 0.253 µM,0.887
same,relative viability,NCI-H522; first compound 0.8 µM,1.03
same,relative viability,NCI-H522; first compound 2.53 µM,0.946
same,relative viability,SW 1573; first compound 0.08 µM,0.76
same,relative viability,SW 1573; first compound 0.8 µM,0.957
same,relative viability,SW 1573; first compound 2.53 µM,0.885
same,relative viability,NCI-H460; first compound 0.08 µM,0.673
same,relative viability,NCI-H460; first compound 0.253 µM,0.541
same,relative viability,NCI-H460; first compound 0.8 µM,0.739
same,relative viability,NCI-H460; first compound 2.53 µM,0.719
same,relative viability,EMC-BAC-2; first compound 0.08 µM,0.907
same,relative viability,EMC-BAC-2; first compound 0.8 µM,0.546
same,relative viability,EMC-BAC-2; first compound 2.53 µM,0.514
same,relative viability,NCI-H2228; first compound 0.08 µM,0.805
same,relative viability,NCI-H2228; first compound 0.253 µM,0.719
same,relative viability,NCI-H2228; first compound 0.8 µM,0.613
same,relative viability,NCI-H2228; first compound 2.53 µM,0.92
same,relative viability,NCI-H1915; first compound 0.08 µM,0.679
same,relative viability,NCI-H1915; first compound 0.253 µM,0.53
same,relative viability,NCI-H1915; first compound 0.8 µM,0.548
same,relative viability,NCI-H1915; first compound 2.53 µM,0.572
same,relative viability,NCI-H1395; first compound 0.08 µM,0.809
same,relative viability,NCI-H1395; first compound 0.253 µM,0.502
same,relative viability,NCI-H1395; first compound 0.8 µM,0.698
same,relative viability,NCI-H1395; first compound 2.53 µM,0.951
same,relative viability,NCI-H23; first compound 0.08 µM,0.642
same,relative viability,NCI-H23; first compound 0.253 µM,0.497
same,relative viability,NCI-H23; first compound 0.8 µM,0.452
same,relative viability,NCI-H23; first compound 2.53 µM,0.707
same,relative viability,SK-LU-1; first compound 0.08 µM,0.697
same,relative viability,SK-LU-1; first compound 0.253 µM,0.726
same,relative viability,SK-LU-1; first compound 0.8 µM,0.819
same,relative viability,SK-LU-1; first compound 2.53 µM,0.83
same,relative viability,HCC-366; first compound 0.08 µM,0.461
same,relative viability,HCC-366; first compound 0.253 µM,0.248
same,relative viability,HCC-366; first compound 0.8 µM,0.21
same,relative viability,HCC-366; first compound 2.53 µM,0.358
same,relative viability,COR-L 105; first compound 0.08 µM,0.904
same,relative viability,COR-L 105; first compound 0.253 µM,0.756
same,relative viability,COR-L 105; first compound 0.8 µM,0.781
same,relative viability,COR-L 105; first compound 2.53 µM,0.99
same,relative viability,HARA; first compound 0.08 µM,0.638
same,relative viability,HARA; first compound 0.253 µM,0.633
same,relative viability,HARA; first compound 0.8 µM,0.569
same,relative viability,HARA; first compound 2.53 µM,0.568
same,relative viability,LCLC-103H; first compound 0.08 µM,0.801
same,relative viability,LCLC-103H; first compound 0.253 µM,0.842
same,relative viability,LCLC-103H; first compound 0.8 µM,0.722
same,relative viability,LCLC-103H; first compound 2.53 µM,0.839
same,relative viability,NCI-H1755; first compound 0.08 µM,0.851
same,relative viability,NCI-H1755; first compound 0.253 µM,0.742
same,relative viability,NCI-H1755; first compound 0.8 µM,0.803
same,relative viability,NCI-H1755; first compound 2.53 µM,0.818
